The target in experiment [1] is T1, Pry1 (Saccharomyces cerevisiae, UniProt P47032).
T1 construct: made in house; host or cells: E. coli BL21
Nature of the experiment: Microscale thermophoresis (MST) binding to Pry1. Conditions: absence of PSP94, read-out: Kd, sterol binding by Pry1. The source says:
(§1) To confirm the direct interaction of PSP94 with CRISP3 and to test whether PSP94 would also bind other CAP family members such as yeast Pry1, or CRISP2, we performed in vitro protein binding assay using microscale thermophoresis (MST). Therefore, PSP94 and the CAP family members, Pry1, CRISP2, and CRISP3, were expressed as fusion proteins with a C-terminal polyhistidine tag in Escherichia coli, and the proteins were affinity purified on nickel-NTA agarose beads. The purified CAP proteins were then fluorescently labeled using RED-tris-NTA and incubated with varying concentrations of PSP94. […] PSP94 thus has high binding affinity for all three CAP proteins tested, and it also binds the CAP domain of Pry1 (Pry1^CAP) alone.
(§2) DNA encoding proteins of interest were PCR amplified and cloned into NcoI and XhoI restriction sites of pET22b, which contains a PelB signal sequence to direct the secretion of expressed protein into the periplasmic space. […] Protein concentration was determined by Lowry assay using the Folin reagent and bovine serum albumin as protein standard.
(§3) MST experiments were performed to assess protein–protein, protein–lipid, and protein–calcium interactions using a Monolith NT.115 (Nanotemper Technologies). […] The dissociation constant Kd was obtained by plotting the normalized fluorescence (Fnorm) against the logarithm of ligand concentration. […]

Experiment [2] deals with T2, CAP domain of Pry1 (Pry1^CAP) (Saccharomyces cerevisiae, UniProt P47032).
T2 construct: made in house; host or cells: E. coli BL21
Nature of the experiment: MST binding to the CAP domain of Pry1.
Text: as §1, §2, §3

For experiment [3], the target named is T3, CRISP2 (Homo sapiens, UniProt P16562).
T3 construct: made in house; host or cells: E. coli BL21
T3 sequence (P16562 22-243): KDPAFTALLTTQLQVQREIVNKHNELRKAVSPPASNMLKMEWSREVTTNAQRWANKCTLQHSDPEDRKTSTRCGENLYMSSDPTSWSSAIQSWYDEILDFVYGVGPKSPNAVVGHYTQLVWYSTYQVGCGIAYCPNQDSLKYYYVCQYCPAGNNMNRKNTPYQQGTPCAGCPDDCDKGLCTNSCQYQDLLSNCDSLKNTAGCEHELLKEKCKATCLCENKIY
Nature of the experiment: MST binding to CRISP2. Set-up: species or system mammalian.
Text: as §1
DNA encoding proteins of interest were PCR amplified and cloned into NcoI and XhoI restriction sites of pET22b, which contains a PelB signal sequence to direct the secretion of expressed protein into the periplasmic space. Plasmids were transformed into E. coli BL21, and proteins were expressed with a C-terminal polyhistidine tag. Different induction strategies were used: overnight induction with lactose at 24 °C for Pry1, CRISP2, and PSP94 and 6 h of induction with 0.4 mM IPTG at 24 °C for the CAP domain of Pry1. Cells were collected and lysed, and the soluble cell lysate was incubated with nickel-nitrilotriacetic acid beads as per the manufacturer instructions (Qiagen). Beads were washed and loaded onto a Ni^2+-NTA column, and proteins were eluted with a buffer containing 60 mM NaH2PO4, 300 mM NaCl, and 300 mM imidazole, pH 8.0. […] Protein concentration was determined by Lowry assay using the Folin reagent and bovine serum albumin as protein standard.
as §3

The target in experiment [4] is T4, CRISP2 N97P (Homo sapiens, UniProt P16562, N97P).
T4 construct: made in house; host or cells: E. coli
Nature of the experiment: MST binding to CRISP2 single mutant N97P. Set-up: species or system mammalian. The conditions noted are these: absence of PSP94, read-out: Kd, sterol binding by CRISP2 N97P.
Text: This interaction is thus located outside the hydrophobic loop that harbors the sterol-binding CBM. Based on these structural considerations, it is thus not apparent why and how the interaction between PSP94 and CRISP2 would block sterol binding at the CBM. To investigate this question in more detail, we first performed computational docking studies to identify residues in CRISP2 that are critical for the interaction with PSP94. […] Two of these three interacting residues, N97 and L98, are conserved in all three CAP family members tested here, CRISP2, CRISP3, and Pry1 (Fig. 4A). […]
as §3
Quadruple mutant cells lacking the acyl-CoA synthetases FAA1 and FAA4 and the yeast CAP family members PRY1 and PRY3 (faa1∆ faa4∆ pry1∆ pry3∆) expressing different combinations of plasmid-borne copies of PRY1, CRISP2, and or PSP94, or their respective empty vectors (pRS423 or pRS426) were cultivated overnight. The export of fatty acids into the culture medium was then quantified. […]

What is called Kd is the equilibrium constant for the complex coming apart.

Counter-ions that a name gives are not always drawn. Like-named read-outs stand apart in the source and are kept apart here.

T2 sequence (P47032 167-281 limits assumed): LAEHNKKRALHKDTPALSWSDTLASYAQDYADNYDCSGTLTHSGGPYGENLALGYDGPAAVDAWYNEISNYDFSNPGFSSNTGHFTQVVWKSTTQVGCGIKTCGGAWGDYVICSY
T1 sequence (P47032 20-299): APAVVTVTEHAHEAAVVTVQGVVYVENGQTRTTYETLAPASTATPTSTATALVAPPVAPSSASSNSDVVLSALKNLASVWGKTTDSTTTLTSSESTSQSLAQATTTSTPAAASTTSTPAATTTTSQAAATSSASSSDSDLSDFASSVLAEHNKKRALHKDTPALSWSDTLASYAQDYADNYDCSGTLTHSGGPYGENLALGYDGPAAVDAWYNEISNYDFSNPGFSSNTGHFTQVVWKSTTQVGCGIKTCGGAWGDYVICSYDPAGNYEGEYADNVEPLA
T4 sequence (P16562 22-243 N97P): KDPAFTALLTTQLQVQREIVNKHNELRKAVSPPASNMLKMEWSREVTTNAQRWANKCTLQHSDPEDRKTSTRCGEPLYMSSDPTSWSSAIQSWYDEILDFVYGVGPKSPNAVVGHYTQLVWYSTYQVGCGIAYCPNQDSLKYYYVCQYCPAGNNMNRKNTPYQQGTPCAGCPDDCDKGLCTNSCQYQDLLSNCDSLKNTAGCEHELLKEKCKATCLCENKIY

In the case of `CC(C)CCC[C@@H](C)[C@H]1CC[C@H]2[C@@H]3CC=C4C[C@@H](OS(=O)(=O)O)CC[C@]4(C)[C@H]3CC[C@]12C` [cholesterol sulfate], the Kd is 3 ± 1.7 µM in experiment [1]; 4.14 ± 0.92 µM in experiment [2] (PSP94^F24G preincubated 5 min at 24 °C, read-out: Kd, sterol binding by Pry1^CAP in presence of PSP94^F24G); 0.9 ± 1.9 µM in experiment [2] (absence of PSP94, read-out: Kd, sterol binding by Pry1^CAP); 9.7 ± 3.04 µM in experiment [3] (PSP94^F24G preincubated 5 min at 24 °C, read-out: Kd, sterol binding by CRISP2 in presence of PSP94^F24G); 1.6 ± 0.9 µM in experiment [3] (absence of PSP94, read-out: Kd, sterol binding by CRISP2); 3.1 ± 1.5 µM in experiment [4].

The record behind these values is paper PMC8857485, “Prostate secretory protein 94 inhibits sterol binding and export by the mammalian CAP protein CRISP2 in a calcium-sensitive manner” (The Journal of Biological Chemistry, 2022).
